Laboratory results: PMC11526092 (2024)

Test system: h1_(TTAA)2 (DNA, hairpin) CGTTAATTAACGCCCCCGTTAATTAACG
Assay: SPR, steady state, two-site fit
Conditions: Na+ 100 mM (NaCl), 1 mM EDTA; 10 mM MES pH 6.25, 0.005% P20, 25 °C; site 1 of 2; error about ±10%

- K1: 680 nM
SMILES: N=C(N)c1ccc(OCCCCCOc2ccc(C(=N)N)cc2)cc1
